System: human tracheobronchial epithelial cells (hTECs)
Type: cell-based
Details: hTEC ALI culture with IL-13, resazurin assay

SMILES: Cc1ccc(-n2nc(C(C)(C)C)cc2NC(=O)Nc2ccc(OCCN3CCOCC3)c3ccccc23)cc1 [NuP-43, BIRB-796]
- number of viable cells: no significant effects

— paper PMC10246002 (bioRxiv, 2023)
